Active and inactive are the calls of the source. For most assays here, no stated cut-off is given here; in the data, actives have a measured Kd and inactives only a lower limit.
Tests used:
[1] = molecular target: Mitogen-activated protein kinase 14 (Homo sapiens, UniProt Q16539)
[2] = molecular target: Interleukin-1 receptor-associated kinase 1 (Homo sapiens, UniProt P51617)
[3] = molecular target: Ribosomal protein S6 kinase alpha-5 (Homo sapiens, UniProt O75582)
[4] = molecular target: T1, Serine/threonine-protein kinase ULK3 (Homo sapiens, UniProt Q6PHR2)
T1 sequence (Q6PHR2 whole entry): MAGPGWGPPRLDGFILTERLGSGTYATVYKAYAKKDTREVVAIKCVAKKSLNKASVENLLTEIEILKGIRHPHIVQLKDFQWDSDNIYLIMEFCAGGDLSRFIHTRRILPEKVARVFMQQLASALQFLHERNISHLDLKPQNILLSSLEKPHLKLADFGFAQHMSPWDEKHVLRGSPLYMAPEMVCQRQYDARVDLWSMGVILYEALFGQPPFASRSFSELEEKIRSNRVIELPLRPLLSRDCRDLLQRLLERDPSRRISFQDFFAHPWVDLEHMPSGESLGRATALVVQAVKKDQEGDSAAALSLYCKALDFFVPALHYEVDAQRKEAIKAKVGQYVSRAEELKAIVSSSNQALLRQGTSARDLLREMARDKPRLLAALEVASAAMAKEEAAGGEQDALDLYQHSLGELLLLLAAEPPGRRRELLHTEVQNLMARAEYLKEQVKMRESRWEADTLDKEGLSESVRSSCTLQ

[5] = molecular target: T2, Phosphorylase b kinase gamma catalytic chain, liver/testis isoform (Homo sapiens, UniProt P15735)
T2 sequence (P15735 whole entry): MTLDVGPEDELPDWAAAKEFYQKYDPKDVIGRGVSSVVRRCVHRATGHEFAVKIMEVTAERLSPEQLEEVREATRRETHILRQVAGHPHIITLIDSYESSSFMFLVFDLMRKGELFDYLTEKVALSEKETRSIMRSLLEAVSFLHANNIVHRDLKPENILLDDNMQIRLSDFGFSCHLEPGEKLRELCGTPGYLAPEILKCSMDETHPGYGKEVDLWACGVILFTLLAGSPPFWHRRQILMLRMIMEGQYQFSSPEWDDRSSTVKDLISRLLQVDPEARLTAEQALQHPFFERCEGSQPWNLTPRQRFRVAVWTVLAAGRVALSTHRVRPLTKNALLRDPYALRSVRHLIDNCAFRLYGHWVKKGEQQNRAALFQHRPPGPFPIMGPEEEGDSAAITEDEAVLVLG

[6] = molecular target: Serine/threonine-protein kinase MRCK beta (Homo sapiens, UniProt Q9Y5S2)
Sequence of Serine/threonine-protein kinase MRCK beta (Q9Y5S2 whole entry): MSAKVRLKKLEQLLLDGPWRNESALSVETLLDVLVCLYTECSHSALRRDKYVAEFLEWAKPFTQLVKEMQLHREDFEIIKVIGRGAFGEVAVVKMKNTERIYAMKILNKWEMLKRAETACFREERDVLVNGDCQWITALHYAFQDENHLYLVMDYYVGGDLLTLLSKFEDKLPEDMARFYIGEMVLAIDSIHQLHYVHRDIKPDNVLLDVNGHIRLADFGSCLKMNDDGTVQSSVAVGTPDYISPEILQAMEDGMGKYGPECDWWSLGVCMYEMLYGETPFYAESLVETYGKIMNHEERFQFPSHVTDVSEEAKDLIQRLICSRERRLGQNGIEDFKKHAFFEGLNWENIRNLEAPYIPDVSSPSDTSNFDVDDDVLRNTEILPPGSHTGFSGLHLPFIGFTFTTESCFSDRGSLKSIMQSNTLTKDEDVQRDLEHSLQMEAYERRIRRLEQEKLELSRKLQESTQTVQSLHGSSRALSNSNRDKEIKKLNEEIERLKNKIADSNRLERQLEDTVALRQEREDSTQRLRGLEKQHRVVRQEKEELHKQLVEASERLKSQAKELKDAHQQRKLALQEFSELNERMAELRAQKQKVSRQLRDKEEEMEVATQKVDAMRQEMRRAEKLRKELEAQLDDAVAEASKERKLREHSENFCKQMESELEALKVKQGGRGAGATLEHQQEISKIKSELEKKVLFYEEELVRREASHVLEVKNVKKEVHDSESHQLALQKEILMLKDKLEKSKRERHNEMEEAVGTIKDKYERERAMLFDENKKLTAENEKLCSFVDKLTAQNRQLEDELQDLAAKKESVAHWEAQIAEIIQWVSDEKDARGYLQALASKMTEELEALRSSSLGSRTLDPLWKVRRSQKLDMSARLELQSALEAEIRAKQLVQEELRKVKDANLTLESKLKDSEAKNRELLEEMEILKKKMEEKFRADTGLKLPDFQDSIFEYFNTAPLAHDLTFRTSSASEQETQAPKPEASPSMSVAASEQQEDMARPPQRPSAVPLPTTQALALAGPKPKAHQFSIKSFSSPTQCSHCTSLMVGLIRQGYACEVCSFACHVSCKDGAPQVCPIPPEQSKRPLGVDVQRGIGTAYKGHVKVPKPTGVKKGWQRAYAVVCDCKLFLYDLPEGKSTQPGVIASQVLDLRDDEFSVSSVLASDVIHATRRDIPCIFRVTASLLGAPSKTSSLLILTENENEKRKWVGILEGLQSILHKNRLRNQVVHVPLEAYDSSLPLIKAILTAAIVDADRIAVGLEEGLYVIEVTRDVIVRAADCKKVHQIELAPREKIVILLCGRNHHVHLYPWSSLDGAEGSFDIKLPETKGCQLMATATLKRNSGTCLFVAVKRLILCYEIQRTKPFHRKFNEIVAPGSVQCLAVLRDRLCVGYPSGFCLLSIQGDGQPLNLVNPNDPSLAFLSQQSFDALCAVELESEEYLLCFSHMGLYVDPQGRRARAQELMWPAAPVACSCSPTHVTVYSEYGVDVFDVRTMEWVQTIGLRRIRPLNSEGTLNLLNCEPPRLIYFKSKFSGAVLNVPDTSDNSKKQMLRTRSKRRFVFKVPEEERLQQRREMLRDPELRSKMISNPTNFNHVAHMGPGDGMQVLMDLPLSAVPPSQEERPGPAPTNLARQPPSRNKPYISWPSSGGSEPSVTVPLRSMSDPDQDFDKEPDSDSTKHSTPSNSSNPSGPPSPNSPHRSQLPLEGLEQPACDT

[7] = molecular target: T3, Structural maintenance of chromosomes protein 1A (Homo sapiens, UniProt Q14683)
T3 sequence (Q14683 whole entry): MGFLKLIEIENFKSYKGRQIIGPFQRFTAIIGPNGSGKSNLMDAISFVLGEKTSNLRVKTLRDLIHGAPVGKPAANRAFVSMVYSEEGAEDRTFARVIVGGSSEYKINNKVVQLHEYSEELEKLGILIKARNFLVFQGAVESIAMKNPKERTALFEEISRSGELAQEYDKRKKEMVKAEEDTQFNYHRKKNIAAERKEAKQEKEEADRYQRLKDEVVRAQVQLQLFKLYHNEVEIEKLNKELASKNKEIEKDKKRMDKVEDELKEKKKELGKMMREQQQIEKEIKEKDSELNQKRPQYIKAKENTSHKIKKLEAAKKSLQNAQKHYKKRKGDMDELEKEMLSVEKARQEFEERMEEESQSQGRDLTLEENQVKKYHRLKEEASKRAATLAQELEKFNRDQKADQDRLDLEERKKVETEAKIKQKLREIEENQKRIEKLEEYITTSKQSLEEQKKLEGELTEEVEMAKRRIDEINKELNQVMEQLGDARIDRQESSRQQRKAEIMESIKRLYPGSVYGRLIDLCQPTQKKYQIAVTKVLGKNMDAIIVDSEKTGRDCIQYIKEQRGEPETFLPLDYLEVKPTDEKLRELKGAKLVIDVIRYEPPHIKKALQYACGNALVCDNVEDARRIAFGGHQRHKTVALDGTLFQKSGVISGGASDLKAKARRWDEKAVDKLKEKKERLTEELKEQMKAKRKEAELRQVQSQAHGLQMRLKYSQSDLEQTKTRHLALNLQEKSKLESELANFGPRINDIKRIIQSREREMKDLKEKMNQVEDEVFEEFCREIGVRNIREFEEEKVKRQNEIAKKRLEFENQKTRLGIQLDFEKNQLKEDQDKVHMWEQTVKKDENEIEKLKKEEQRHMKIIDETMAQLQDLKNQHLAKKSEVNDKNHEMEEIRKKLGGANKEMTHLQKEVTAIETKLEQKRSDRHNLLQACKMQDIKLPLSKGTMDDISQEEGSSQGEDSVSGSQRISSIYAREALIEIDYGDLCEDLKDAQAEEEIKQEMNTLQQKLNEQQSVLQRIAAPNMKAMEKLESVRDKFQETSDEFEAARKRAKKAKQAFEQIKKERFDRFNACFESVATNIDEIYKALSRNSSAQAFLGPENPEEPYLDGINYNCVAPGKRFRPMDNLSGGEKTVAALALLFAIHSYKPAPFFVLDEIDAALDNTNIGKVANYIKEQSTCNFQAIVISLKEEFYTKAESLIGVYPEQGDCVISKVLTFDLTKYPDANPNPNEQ

[8] = molecular target: T4, Bifunctional phosphoribosylaminoimidazole carboxylase/phosphoribosylaminoimidazole succinocarboxamide synthetase (Homo sapiens, UniProt P22234)
T4 sequence (P22234 whole entry): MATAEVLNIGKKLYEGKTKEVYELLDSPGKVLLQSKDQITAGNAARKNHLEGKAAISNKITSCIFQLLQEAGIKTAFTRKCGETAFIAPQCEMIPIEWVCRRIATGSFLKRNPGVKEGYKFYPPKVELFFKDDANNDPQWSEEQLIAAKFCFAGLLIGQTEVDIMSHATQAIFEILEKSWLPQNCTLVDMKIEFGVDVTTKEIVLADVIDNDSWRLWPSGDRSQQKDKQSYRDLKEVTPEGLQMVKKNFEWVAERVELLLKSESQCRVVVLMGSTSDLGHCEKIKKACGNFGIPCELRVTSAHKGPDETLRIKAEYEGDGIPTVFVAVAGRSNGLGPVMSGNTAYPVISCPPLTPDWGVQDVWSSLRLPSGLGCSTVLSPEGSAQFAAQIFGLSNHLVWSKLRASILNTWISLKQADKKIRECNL

[9] = molecular target: Dual specificity tyrosine-phosphorylation-regulated kinase 1A (Homo sapiens, UniProt Q13627)
Ephrin type-A receptor 5 = Ephrin type-A receptor 5 (Homo sapiens, UniProt P54756)
Sequence of Ephrin type-A receptor 5 (P54756 whole entry): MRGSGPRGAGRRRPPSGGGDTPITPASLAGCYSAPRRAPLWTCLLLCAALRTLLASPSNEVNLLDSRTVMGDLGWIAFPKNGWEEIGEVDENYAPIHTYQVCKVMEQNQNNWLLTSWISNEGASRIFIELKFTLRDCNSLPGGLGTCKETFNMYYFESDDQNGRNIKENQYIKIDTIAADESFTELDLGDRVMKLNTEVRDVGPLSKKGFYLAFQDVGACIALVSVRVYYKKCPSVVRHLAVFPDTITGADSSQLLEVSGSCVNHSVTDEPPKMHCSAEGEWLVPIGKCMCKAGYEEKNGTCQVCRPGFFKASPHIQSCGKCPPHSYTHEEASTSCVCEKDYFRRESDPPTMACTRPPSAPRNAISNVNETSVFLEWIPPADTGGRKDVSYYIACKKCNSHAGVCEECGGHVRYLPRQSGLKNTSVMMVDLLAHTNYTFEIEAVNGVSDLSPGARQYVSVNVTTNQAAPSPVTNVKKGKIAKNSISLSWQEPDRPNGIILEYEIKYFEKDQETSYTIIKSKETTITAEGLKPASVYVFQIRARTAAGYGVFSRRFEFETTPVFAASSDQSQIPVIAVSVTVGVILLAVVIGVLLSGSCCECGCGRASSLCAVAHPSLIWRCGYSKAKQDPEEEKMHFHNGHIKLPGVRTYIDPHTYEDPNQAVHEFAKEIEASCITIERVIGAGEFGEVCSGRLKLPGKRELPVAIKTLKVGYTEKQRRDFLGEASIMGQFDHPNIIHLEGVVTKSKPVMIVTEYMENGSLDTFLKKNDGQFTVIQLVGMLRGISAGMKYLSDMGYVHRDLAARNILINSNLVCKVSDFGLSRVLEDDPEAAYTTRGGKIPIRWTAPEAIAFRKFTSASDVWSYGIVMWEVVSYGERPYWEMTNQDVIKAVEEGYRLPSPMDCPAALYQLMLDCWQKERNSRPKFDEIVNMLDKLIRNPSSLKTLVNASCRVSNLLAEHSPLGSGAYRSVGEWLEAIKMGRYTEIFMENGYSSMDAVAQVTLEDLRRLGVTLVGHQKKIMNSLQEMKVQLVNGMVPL

[10] = molecular target: Cyclin-dependent kinase 7 (Homo sapiens, UniProt P50613)
Sequence of Cyclin-dependent kinase 7 (P50613 whole entry): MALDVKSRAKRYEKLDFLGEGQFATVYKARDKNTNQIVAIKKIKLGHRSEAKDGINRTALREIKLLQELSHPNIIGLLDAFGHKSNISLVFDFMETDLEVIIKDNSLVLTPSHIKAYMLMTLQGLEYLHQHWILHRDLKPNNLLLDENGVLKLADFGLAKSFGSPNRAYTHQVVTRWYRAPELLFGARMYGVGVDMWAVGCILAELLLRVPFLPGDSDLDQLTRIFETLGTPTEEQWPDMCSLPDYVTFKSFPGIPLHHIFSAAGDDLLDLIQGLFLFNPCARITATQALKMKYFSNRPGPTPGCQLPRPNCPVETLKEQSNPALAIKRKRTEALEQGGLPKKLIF

Sequence of Interleukin-1 receptor-associated kinase 1 (P51617 whole entry): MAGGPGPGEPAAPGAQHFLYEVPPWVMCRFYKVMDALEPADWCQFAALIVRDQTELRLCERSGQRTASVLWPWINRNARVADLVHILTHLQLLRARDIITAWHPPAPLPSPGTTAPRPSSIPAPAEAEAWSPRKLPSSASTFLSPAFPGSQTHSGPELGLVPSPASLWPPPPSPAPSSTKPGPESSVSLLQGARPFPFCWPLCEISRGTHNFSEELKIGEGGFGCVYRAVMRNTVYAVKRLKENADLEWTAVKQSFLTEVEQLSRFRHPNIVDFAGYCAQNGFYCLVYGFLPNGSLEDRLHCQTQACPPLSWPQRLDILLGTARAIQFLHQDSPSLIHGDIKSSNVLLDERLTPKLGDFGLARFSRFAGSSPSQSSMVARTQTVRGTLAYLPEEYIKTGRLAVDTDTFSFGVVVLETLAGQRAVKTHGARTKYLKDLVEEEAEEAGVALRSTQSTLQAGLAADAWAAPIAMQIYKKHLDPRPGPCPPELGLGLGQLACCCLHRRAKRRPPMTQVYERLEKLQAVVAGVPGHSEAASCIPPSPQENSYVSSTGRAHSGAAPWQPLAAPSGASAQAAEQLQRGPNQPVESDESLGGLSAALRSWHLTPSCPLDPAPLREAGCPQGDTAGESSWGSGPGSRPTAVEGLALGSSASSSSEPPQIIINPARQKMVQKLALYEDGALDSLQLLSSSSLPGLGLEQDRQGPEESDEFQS
Sequence of Ribosomal protein S6 kinase alpha-5 (O75582 whole entry): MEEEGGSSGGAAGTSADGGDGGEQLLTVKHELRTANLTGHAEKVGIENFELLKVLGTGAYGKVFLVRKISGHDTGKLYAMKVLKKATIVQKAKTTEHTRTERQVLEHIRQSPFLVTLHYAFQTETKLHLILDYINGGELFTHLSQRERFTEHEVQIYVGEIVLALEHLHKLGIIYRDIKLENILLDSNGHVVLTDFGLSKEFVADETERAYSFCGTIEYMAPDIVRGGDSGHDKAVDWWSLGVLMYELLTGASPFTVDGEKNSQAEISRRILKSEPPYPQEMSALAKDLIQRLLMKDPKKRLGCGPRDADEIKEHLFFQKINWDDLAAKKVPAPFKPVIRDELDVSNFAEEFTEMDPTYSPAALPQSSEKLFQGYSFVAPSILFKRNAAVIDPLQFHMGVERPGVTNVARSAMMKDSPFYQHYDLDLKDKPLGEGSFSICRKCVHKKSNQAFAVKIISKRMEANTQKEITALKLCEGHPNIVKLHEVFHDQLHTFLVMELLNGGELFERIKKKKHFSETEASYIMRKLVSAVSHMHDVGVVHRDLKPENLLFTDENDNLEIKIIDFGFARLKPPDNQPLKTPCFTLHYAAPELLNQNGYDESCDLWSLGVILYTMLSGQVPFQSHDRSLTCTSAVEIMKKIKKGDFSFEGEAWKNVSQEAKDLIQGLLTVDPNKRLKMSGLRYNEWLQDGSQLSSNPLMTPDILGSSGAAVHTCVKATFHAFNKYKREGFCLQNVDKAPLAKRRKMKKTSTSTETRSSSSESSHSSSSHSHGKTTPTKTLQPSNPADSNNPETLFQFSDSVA
Sequence of Mitogen-activated protein kinase 14 (Q16539 whole entry): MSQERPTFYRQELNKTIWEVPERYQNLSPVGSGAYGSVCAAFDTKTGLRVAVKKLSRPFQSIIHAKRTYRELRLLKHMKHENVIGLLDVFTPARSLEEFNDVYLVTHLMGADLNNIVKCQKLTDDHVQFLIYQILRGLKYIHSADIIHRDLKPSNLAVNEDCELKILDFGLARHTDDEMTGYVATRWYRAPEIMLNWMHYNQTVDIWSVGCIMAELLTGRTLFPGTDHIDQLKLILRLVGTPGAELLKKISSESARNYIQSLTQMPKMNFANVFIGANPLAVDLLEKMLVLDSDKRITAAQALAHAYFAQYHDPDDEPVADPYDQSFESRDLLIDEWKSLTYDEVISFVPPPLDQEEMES

SMILES	Kd [1]	Kd [2]	Kd [3]	Kd [4]	Kd [5]	Kd [6]	Kd [7]	Kd [8]	Kd [9]	Kd (Ephrin type-A receptor 5)	Kd [10]
C[C@@H](Oc1cc(C(=O)Nc2ccc(C(=O)N3CCN(C)CC3)cc2)nnc1N)c1c(Cl)ccc(F)c1Cl	> 30 µM (inactive)	> 30 µM (inactive)	> 30 µM (inactive)	> 30 µM (inactive)	> 30 µM (inactive)	> 30 µM (inactive)	> 30 µM (inactive)	> 30 µM (inactive)	> 30 µM (inactive)	> 30 µM (inactive)	> 30 µM (inactive)
C[C@H]1CNCCCN1S(=O)(=O)c1cccc2cncc(F)c12	> 30 µM (inactive)	> 30 µM (inactive)	> 30 µM (inactive)	> 30 µM (inactive)	> 30 µM (inactive)	> 30 µM (inactive)	> 30 µM (inactive)	> 30 µM (inactive)	> 30 µM (inactive)	> 30 µM (inactive)	> 30 µM (inactive)
CCNC(=O)C#Cc1ccc2c(c1)NC(=O)/C2=C(\Nc1ccc(CN(C)C)cc1)c1ccccc1	> 30 µM (inactive)	> 30 µM (inactive)	> 30 µM (inactive)	0.612 µM (active)	> 30 µM (inactive)	> 30 µM (inactive)	> 30 µM (inactive)	> 30 µM (inactive)	> 30 µM (inactive)	> 30 µM (inactive)	> 30 µM (inactive)
C=CC(=O)N1CCC[C@H](n2c(=O)n(-c3ccc(Oc4ccccc4)cc3)c3c(N)ncnc32)C1	> 30 µM (inactive)	> 30 µM (inactive)	> 30 µM (inactive)	> 30 µM (inactive)	> 30 µM (inactive)	> 30 µM (inactive)	> 30 µM (inactive)	> 30 µM (inactive)	> 30 µM (inactive)	> 30 µM (inactive)	> 30 µM (inactive)
Cc1nc2cc(-c3nn(C(C)C)c4ncnc(N)c34)ccc2o1	> 30 µM (inactive)	> 30 µM (inactive)	> 30 µM (inactive)	> 30 µM (inactive)	> 30 µM (inactive)	> 30 µM (inactive)	> 30 µM (inactive)	> 30 µM (inactive)	> 30 µM (inactive)	> 30 µM (inactive)	> 30 µM (inactive)
COCc1c(-c2ccc(NC(=O)Nc3cc(C(F)(F)F)ccc3F)c(F)c2)c2c(N)ncnn2c1CN1CCOCC1	> 30 µM (inactive)	> 30 µM (inactive)	> 30 µM (inactive)	> 30 µM (inactive)	> 30 µM (inactive)	> 30 µM (inactive)	> 30 µM (inactive)	> 30 µM (inactive)	> 30 µM (inactive)	> 30 µM (inactive)	> 30 µM (inactive)
Nc1ncnc2c1c(-c1cccc(OCc3ccccc3)c1)cn2[C@H]1C[C@@H](CN2CCC2)C1 [AEW-541]	> 30 µM (inactive)	> 30 µM (inactive)	> 30 µM (inactive)	> 30 µM (inactive)	> 30 µM (inactive)	> 30 µM (inactive)	> 30 µM (inactive)	> 30 µM (inactive)	> 30 µM (inactive)	> 30 µM (inactive)	> 30 µM (inactive)
Cc1nc(NC(=O)N2CCC[C@H]2C(N)=O)sc1-c1ccnc(C(C)(C)C(F)(F)F)c1 [ALPELISIB]	> 30 µM (inactive)	> 30 µM (inactive)	> 30 µM (inactive)	> 30 µM (inactive)	> 30 µM (inactive)	> 30 µM (inactive)	> 30 µM (inactive)	> 30 µM (inactive)	> 30 µM (inactive)	> 30 µM (inactive)	> 30 µM (inactive)
C=CC(=O)Nc1cc2c(Nc3ccc(F)c(Cl)c3)ncnc2cc1C#CC(C)(C)N1CCN(C)CC1 [AV-412 FREE BASE]	> 30 µM (inactive)	> 30 µM (inactive)	> 30 µM (inactive)	> 30 µM (inactive)	> 30 µM (inactive)	> 30 µM (inactive)	> 30 µM (inactive)	> 30 µM (inactive)	> 30 µM (inactive)	> 30 µM (inactive)	> 30 µM (inactive)
COc1cc([C@@H]2c3cc4c(cc3[C@H](O)[C@H]3COC(=O)[C@@H]23)OCO4)cc(OC)c1OC [AXL-1717]	> 30 µM (inactive)	> 30 µM (inactive)	> 30 µM (inactive)	> 30 µM (inactive)	> 30 µM (inactive)	> 30 µM (inactive)	> 30 µM (inactive)	> 30 µM (inactive)	> 30 µM (inactive)	> 30 µM (inactive)	> 30 µM (inactive)

Next, values leading:

Kd [1]	Kd [2]	Kd [3]	Kd [4]	Kd [5]	Kd [6]	Kd [7]	Kd [8]	Kd [9]	Kd (Ephrin type-A receptor 5)	Kd [10]	SMILES
0.735 µM (active)	> 30 µM (inactive)	2.15 µM (active)	> 30 µM (inactive)	> 30 µM (inactive)	> 30 µM (inactive)	> 30 µM (inactive)	> 30 µM (inactive)	> 30 µM (inactive)	> 30 µM (inactive)	> 30 µM (inactive)	Cc1csc(-c2nnc(Nc3ccc(Oc4ncccc4-c4ccnc(N)n4)cc3)c3ccccc23)c1 [AMG-900]
> 30 µM (inactive)	> 30 µM (inactive)	> 30 µM (inactive)	> 30 µM (inactive)	> 30 µM (inactive)	> 30 µM (inactive)	> 30 µM (inactive)	> 30 µM (inactive)	> 30 µM (inactive)	> 30 µM (inactive)	> 30 µM (inactive)	Cc1cc(C(=O)NOCCO)c(Nc2ccc(I)cc2F)n(C)c1=O [AZD-8330]
> 30 µM (inactive)	> 30 µM (inactive)	> 30 µM (inactive)	> 30 µM (inactive)	> 30 µM (inactive)	> 30 µM (inactive)	–	> 30 µM (inactive)	> 30 µM (inactive)	> 30 µM (inactive)	> 30 µM (inactive)	Cn1cc(-c2cnn3c(N)c(Br)c([C@@H]4CCCNC4)nc23)cn1 [SCH-900776]
